Test results as given in US4704384A, “Aziridinyl quinone antitumor agents” (priority 1981, dated 1987).
Several values for one entry are separate records, joined by “and”; a condition that tells them apart may be missing. Equal values may be shown once. Entries after “also recorded” stand apart in the source; their conditions may differ. Read-outs that look alike come from different tables or passages of the source.

Key:
B16 melanocarcinoma = assay type: in vivo, murine; settings: for ILS: QD1-9, at OD, Table IX; for OD: QD1-9, Table IX
lymphoid leukemia L1210 [1] = settings: for OD / ILS / animals alive per 6 / T-C: Table VIII; for survivors, IP L1210: Table XI, parentheses, per 6
Description: ^b Ip tumor implantation, ip QD19 treatment schedule.
^e ILS = [(treated survival + control survival) × 100%] - 100%
The L1210, P388 and B16 test systems described in Table II utilize intraperitoneal (IP) tumor implantation and IP drug treatment while the Lewis lung system employs subcutaneous tumor implantation and IP treatment. All three CNS tumor models (Table III) use intracerebral (IC) tumor implantation and IP treatment.
Aqueous saline solution (0.9%) was used as the drug vehicle. Normally, five doses were employed per experiment with the top dose chosen to produce toxicity. The lower doses were 50% of each preceeding dose.
Consistent with NCI antitumor test protocols, intraperitoneal (IP) administration of the drug was employed with all five tumor systems investigated. Tumor implantation was IP in the systems designated IP leukemia L1210 and P388 as well as B16 melanoma. Intracerebral (IC) tumor implantation was utilized in the IC L1210 and ependymoblastoma tumor systems.

[2] = test system: lymphocytic leukemia P388; assay type: in vivo, murine; settings: for OD: QD1-9, Table IX; for ILS: QD1-9, at OD; for ILS / animals alive per 6: Table IX; for animals alive per 6: QD1-9, day 30, at OD; for survivors, P388: Table XI, parentheses, per 6
lymphoid leukemia L1210 [3] = assay type: in vivo, murine; settings: for OD: QD1-9, Table X; for ILS: QD1-9, at OD, Table X
Description: (§1) A third IC tumor model, the ependymoblastoma system, was also studied. This system requires intracerebral implantation of a solid tumor fragment while the IC L1210 and IC P388 systems utilize IC inoculated ascites tumor fluid. All three use IP drug treatment however. […] Cures (survivors from the group of six mice on the last day of the experiment) are indicated.

ependymoblastoma = assay type: in vivo, murine; settings: for OD: QD1-5, Table X; for ILS: QD1-5, at OD; for ILS / animals alive per 6: Table X; for animals alive per 6: QD1-5, day 60, at OD; for survivors, EM: parentheses, per 6
Description: ^c Ic tumor implantation, ip QD15 treatment schedule.
as §1

Row | Structure (SMILES) | activity in B16 melanoma (B16 melanocarcinoma) | ILS (B16 melanocarcinoma) | OD (lymphoid leukemia L1210 [1]; Day 1 only (1 injection)) | OD (lymphoid leukemia L1210 [1]; Q4D (day 1,5,9)) | ILS (lymphoid leukemia L1210 [1]; Q4D, at OD) | OD (lymphoid leukemia L1210 [1]; QD1-9 (9 injections)) | ILS (lymphoid leukemia L1210 [1]; QD1-9, at OD) | animals alive per 6 (lymphoid leukemia L1210 [1]; QD1-9, day 30, at OD) | OD [2] | ILS [2] | OD (lymphoid leukemia L1210 [3]) | ILS (lymphoid leukemia L1210 [3]) | activity in ependymoblastoma (ependymoblastoma) | OD (ependymoblastoma) | ILS (ependymoblastoma) | animals alive per 6 (ependymoblastoma) | survivors, EM (ependymoblastoma; Table XI) | OD (B16 melanocarcinoma) | activity in IP L1210 (lymphoid leukemia L1210 [1]) | ILS (lymphoid leukemia L1210 [1]; Day 1 only, at OD) | further results
1 | CNC1=C(N2CC2)C(=O)C(NC)=C(N2CC2)C1=O [Compound 34] | approached minimal reproducible activity | 39% and 29% | 0.7 mg/kg/injection | 0.8 mg/kg/injection and 0.4 mg/kg/injection | 57% and 56% | 0.2 mg/kg/injection | 73% and 61% | 1 | 0.2 mg/kg/injection and 0.1 mg/kg/injection | 95% and 69% | 0.4 mg/kg/injection and 0.2 mg/kg/injection | 68% and 60% | among the most active materials | 0.2 mg/kg/injection and 0.4 mg/kg/injection | 219% and 218% | 5 and 4 | 5 |  |  |  | activity in IC L1210 (lymphoid leukemia L1210 [3]): most active; also recorded: significant activity
2 | CCNC1=C(N2CC2)C(=O)C(NCC)=C(N2CC2)C1=O [Compound 35, 2,5-DIAZIRIDINYL-3,6-BIS(ETHYLAMINO)-1,4-BENZOQUINONE] |  | 26% and 24% | 1.5 mg/kg/injection | 3.0 mg/kg/injection and 1.5 mg/kg/injection | 75% and 57% | 1.5 mg/kg/injection | 112% and 91% | 2 and 1 |  | 160% and 103% | 3.0 mg/kg/injection | 44% and 40% | most active | 1.5 mg/kg/injection | 218% and 187% | 2 | 2 | 0.4 mg/kg/injection and 0.7 mg/kg/injection | activity appears to peak | 68% and 54% | T-C (lymphoid leukemia L1210 [1]; QD1-9, day 5, at OD): -3.3 grams; survivors, IP L1210 (lymphoid leukemia L1210 [1]): 2
3 | CCCNC1=C(N2CC2)C(=O)C(NCCC)=C(N2CC2)C1=O [Compound 36] |  | 36% and 32% |  | 6.2 mg/kg/injection | 28% and 25% | 6.2 mg/kg/injection | 48% and 43% |  | 6.0 mg/kg/injection | 151% and 108% |  |  | highly active; also recorded: very active; also recorded: most active | 5.0 mg/kg/injection and 10.0 mg/kg/injection | 259% and 143% | 2 and 1 | 2 | 5.0 mg/kg/injection | significant reduction in activity | 17% | animals alive per 6 [2]: 2; survivors, P388 [2]: 2
4 | CCCCNC1=C(N2CC2)C(=O)C(NCCCC)=C(N2CC2)C1=O [Compound 37] |  |  | 10.0 mg/kg/injection | 12.5 mg/kg/injection and 8.2 mg/kg/injection | 44% and 25% | 10.0 mg/kg/injection and 5.0 mg/kg/injection | 36% and 30% |  | 5.0 mg/kg/injection and 10.0 mg/kg/injection | 64% and 49% |  |  |  | 6.0 mg/kg/injection and 3.0 mg/kg/injection | 93% |  |  | 10.0 mg/kg/injection and 5.0 mg/kg/injection | significant reduction in activity | 11% and 5% | 
5 | O=C1C(NCCO)=C(N2CC2)C(=O)C(NCCO)=C1N1CC1 [Compound 38] | reproducibly active | 61% and 51% | 1.5 mg/kg/injection | 0.7 mg/kg/injection | 131% and 70% | 0.7 mg/kg/injection | 205% and 134% | 2 and 3 | 0.4 mg/kg/injection | 175% and 160% | 0.75 mg/kg/injection | 57% and 48% |  | 1.5 mg/kg/injection | 83% and 70% |  |  | 0.4 mg/kg/injection | Excellent activity; also recorded: produced cures; also recorded: superior | 175% and 119% | animals alive per 6 (lymphoid leukemia L1210 [1]; Day 1 only, day 30, at OD): 5 and 3; survivors, IP L1210 (lymphoid leukemia L1210 [1]): 2; maximum ILS (lymphoid leukemia L1210 [1]; chronic schedule): > 200%; activity in IP P388 [2]: very active producing multiple cures; animals alive per 6 [2]: 3 and 2; survivors, P388 [2]: 3; activity in IC L1210 (lymphoid leukemia L1210 [3]): marginal IC L1210 activity
6 | O=C1C(NCC(O)CO)=C(N2CC2)C(=O)C(NCC(O)CO)=C1N1CC1 (centres unmarked) [Compound 39] | reproducibly active | 50% and 42% | 4.0 mg/kg/injection and 2.0 mg/kg/injection | 4.0 mg/kg/injection and 8.0 mg/kg/injection | 90% and 79% | 4.0 mg/kg/injection and 2.0 mg/kg/injection | 206% |  | 4.0 mg/kg/injection | 143% | 4.0 mg/kg/injection | 43% and 41% | moderate to good EM activity |  | 99% and 53% | 1 | 1 | 4.0 mg/kg/injection and 6.0 mg/kg/injection | Excellent activity; also recorded: produced cures; also recorded: probably the most active compound in the IP ascites systems | 89% | animals alive per 6 (lymphoid leukemia L1210 [1]; Day 1 only, day 30, at OD): 4; survivors, IP L1210 (lymphoid leukemia L1210 [1]): 5; activity in IP P388 [2]: very active producing multiple cures; animals alive per 6 [2]: 6 and 4; survivors, P388 [2]: 6; activity in IC L1210 (lymphoid leukemia L1210 [3]): marginal IC L1210 activity; ILS (%) EM (ependymoblastoma; Table XI, outstanding activity): 99%; survivors, EM (ependymoblastoma; repeat test): 6
7 | O=C1C(N2CCCC2)=C(N2CC2)C(=O)C(N2CCCC2)=C1N1CC1 [Compound 43, 2,5-DIAZIRIDINYL-3,6-DIPYRROLIDINO-1,4-BENZOQUINONE] |  | 28% and 18% | 4.0 mg/kg/injection and 2.0 mg/kg/injection | 6.2 mg/kg/injection | 43% | 2.0 mg/kg/injection | 24% and 21% |  |  | 72% and 55% |  |  |  | 1.6 mg/kg/injection and 3.1 mg/kg/injection |  |  |  | 2.0 mg/kg/injection |  | 8% | T-C (lymphoid leukemia L1210 [1]; Q4D, day 5, at OD): -2.3 grams
8 | O=C1C(N2CCCCC2)=C(N2CC2)C(=O)C(N2CCCCC2)=C1N1CC1 [Compound 44] |  |  |  |  | 26% and 22% | 10.0 mg/kg/injection | 28% |  | 5.0 mg/kg/injection and 10.0 mg/kg/injection | 46% and 77% |  |  |  |  | 68% and 46% |  |  | 5.0 mg/kg/injection and 2.5 mg/kg/injection |  | 16% and 8% | T-C (lymphoid leukemia L1210 [1]; QD1-9, day 5, at OD): -2.2 grams
9 | O=C1C(N2CCOCC2)=C(N2CC2)C(=O)C(N2CCOCC2)=C1N1CC1 [Compound 46, 2,5-DIAZIRIDINYL-3,6-DIMORPHOLINO-1,4-BENZOQUINONE] |  | 24% and 17% |  | 6.0 mg/kg/injection | 49% and 44% |  | 64% and 32% |  | 0.5 mg/kg/injection and 0.7 mg/kg/injection | 52% and 48% |  |  |  |  | 134% and 82% |  |  |  |  | -14% | T-C (lymphoid leukemia L1210 [1]; Q4D, day 5, at OD): -2.6 grams
